From ChEMBL document CHEMBL4368902 (J Med Chem, 2019)
Active and inactive are the calls of the source. The rule behind the calls is not given here. Positions of bridges follow the written chain, without caps; N, C: chain ends. Non-standard residues stand in square brackets, D forms with d. Residues, ends and D or L forms follow the SMILES beside them. Nle = CCCC[C@H](N)C(=O)O

What was measured:
Mus musculus [1] = test: Anorexigenic activity in C57BL/6J mouse assessed as reduction in ghrelin-induced food intake at 0.6 nmol/g body weight, sc measured after 2 hrs post dose; type: functional, organism-based
Mus musculus [2] = test: Effect on food intake in C57BL/6J mouse at 0.6 nmol/g body weight, sc measured after 2 hrs post dose; type: ADME, organism-based; conditions: in vivo
[3] = target: T1, Growth hormone secretagogue receptor type 1 (Homo sapiens, UniProt Q92847); test: Competitive antagonist activity at human SNAP-tagged GHSR expressed in HEK293T cells assessed as reduction in ghrelin-induced calcium production at 1 uM after 15 mins by Fluo 4-AM dye-based fluorescence assay; type: functional, cell-based; conditions: read-out: pA2 (converted)
T1 sequence (Q92847 whole entry): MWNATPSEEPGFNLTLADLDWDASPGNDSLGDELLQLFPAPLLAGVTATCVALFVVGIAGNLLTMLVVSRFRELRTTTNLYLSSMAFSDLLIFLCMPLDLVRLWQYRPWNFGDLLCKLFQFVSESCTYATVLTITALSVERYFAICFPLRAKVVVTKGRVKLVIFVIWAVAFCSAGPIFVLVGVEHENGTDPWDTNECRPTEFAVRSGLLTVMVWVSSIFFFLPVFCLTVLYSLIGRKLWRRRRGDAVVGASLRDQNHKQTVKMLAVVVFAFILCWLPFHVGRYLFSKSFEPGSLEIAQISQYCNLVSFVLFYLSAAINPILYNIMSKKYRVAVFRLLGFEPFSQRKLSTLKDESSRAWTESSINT

[4] = target: T1, Growth hormone secretagogue receptor type 1; test: Displacement of […] from SNAP-tagged human GHSR expressed in HEK293T cells after 3 hrs by HTRF assay; type: cell-based
[5] = target: T1, Growth hormone secretagogue receptor type 1; test: Competitive antagonist activity at SNAP-tagged human GHSR expressed in HEK293T cells assessed as reduction in ghrelin-induced inositol phosphate production at 1 uM after 30 mins by HTRF assay; type: functional, cell-based; conditions: read-out: pA2 (converted)
[6] = target: T1, Growth hormone secretagogue receptor type 1; test: Inverse agonist activity at SNAP-tagged human GHSR expressed in HEK293T cells assessed as reduction in inositol phosphate production after 30 mins by HTRF assay; type: functional, cell-based
[7] = target: Growth hormone secretagogue receptor type 1 (Rattus norvegicus) (UniProt O08725); test: Inverse agonist activity at GHSR in Wistar rat pancreatic islets assessed as inhibition of ghrelin-induced insulinostatic action after 1 hr in presence of glucose
Sequence of Growth hormone secretagogue receptor type 1 (Rattus norvegicus) (O08725 whole entry, looked up): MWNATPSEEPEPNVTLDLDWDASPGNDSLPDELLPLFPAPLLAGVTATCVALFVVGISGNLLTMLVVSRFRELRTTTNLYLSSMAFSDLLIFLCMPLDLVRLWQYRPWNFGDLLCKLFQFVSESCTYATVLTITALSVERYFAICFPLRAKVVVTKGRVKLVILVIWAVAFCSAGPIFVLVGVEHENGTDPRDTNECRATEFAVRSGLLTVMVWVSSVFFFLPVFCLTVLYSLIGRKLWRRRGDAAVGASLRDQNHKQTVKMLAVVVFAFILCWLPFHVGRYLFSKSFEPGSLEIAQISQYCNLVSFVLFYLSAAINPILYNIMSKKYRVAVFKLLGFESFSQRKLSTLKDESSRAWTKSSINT

CC(C)C[C@H](NC(=O)[C@H](CO)NC(=O)[C@@H]1CSSC[C@@H]2NC(=O)[C@H](CCC(=O)O)NC(=O)[C@H](CO)NC(=O)[C@@H](CC(=O)O)NC(=O)[C@@H](CC(=O)O)NC(=O)[C@@H](CCCNC(=N)N)NC(=O)[C@H](NC(=O)[C@@H](CO)NC(=O)[C@@H](C)N)CSSC[C@H](NC(=O)[C@H](CC(C)C)NC(=O)[C@H](CCCNC(=N)N)NC(=O)[C@H]([C@@H](C)O)NC(=O)[C@H]([C@@H](C)O)NC2=O)C(=O)N[C@@H](CCCNC(=N)N)C(=O)N[C@@H](CCCCN)C(=O)N[C@@H](CCCNC(=N)N)C(=O)N[C@@H](CCCNC(=N)N)C(=O)N1)C(=O)N[C@@H](CO)C(=O)N[C@H](C(=O)N[C@@H](C)C(=O)N[C@@H](CCC(N)=O)C(=O)N[C@@H](CCC(=O)O)C(=O)O)C(C)C
Activity (Mus musculus [1]): inactive

CCCC[C@H](N)C(=O)N[C@H](C(=O)N1CCC[C@H]1C(=O)N[C@@H](Cc1ccccc1)C(=O)N[C@@H](Cc1c[nH]c2ccccc12)C(=O)N[C@@H](CCCNC(=N)N)C(=O)NCC(=O)N[C@H](C(=O)N[C@@H](CO)C(=O)N[C@@H](CC(C)C)C(=O)N[C@@H](CCCNC(=N)N)C(=O)N1CCC[C@H]1C(=O)N[C@H](C(=O)NCC(=O)N[C@H](C)C(=O)N[C@H](CO)C(=O)N[C@@H]1CSSC[C@@H]2NC(=O)[C@H](CC(C)C)NC(=O)[C@H](CCCNC(=N)N)NC(=O)[C@H]([C@@H](C)O)NC(=O)[C@H]([C@@H](C)O)NC(=O)[C@H](CSSC[C@@H](C(=O)N[C@@H](CO)C(=O)N[C@@H](CC(C)C)C(=O)N[C@@H](CO)C(=O)N[C@H](C(=O)N[C@@H](C)C(=O)N[C@@H](CCC(N)=O)C(=O)N[C@@H](CCC(=O)O)C(=O)O)C(C)C)NC(=O)[C@H](CCCNC(=N)N)NC(=O)[C@H](CCCNC(=N)N)NC(=O)[C@H](CCCCN)NC(=O)[C@H](CCCNC(=N)N)NC2=O)NC(=O)[C@H](CCC(=O)O)NC(=O)[C@H](CO)NC(=O)[C@@H](CC(=O)O)NC(=O)[C@@H](CC(=O)O)NC(=O)[C@@H](CCCNC(=N)N)NC1=O)[C@@H](C)CC)C(C)C)[C@@H](C)O
Activity (Mus musculus [1]): Active

CC[C@H](C)[C@@H]1NC(=O)[C@@H]2CSSC[C@@H](C(=O)N[C@@H](CO)C(=O)N[C@@H](CC(C)C)C(=O)N[C@@H](CO)C(=O)N[C@H](C(=O)N[C@@H](C)C(=O)N[C@@H](CCC(N)=O)C(=O)N[C@@H](CCC(=O)O)C(=O)O)C(C)C)NC(=O)[C@H](CCCNC(=N)N)NC(=O)[C@H](CCCNC(=N)N)NC(=O)[C@H](CCCCN)NC(=O)[C@H](CCCNC(=N)N)NC(=O)[C@H](CSSC[C@H](NC(=O)[C@H](CO)NC(=O)[C@H](C)N)C(=O)N[C@@H](CCCNC(=N)N)C(=O)N[C@@H](CC(=O)O)C(=O)N[C@@H](CC(=O)O)C(=O)N[C@@H](CO)C(=O)N[C@@H](CCC(=O)O)C(=O)N2)NC(=O)[C@H](CC(C)C)NC(=O)[C@H](CCCNC(=N)N)NC(=O)[C@H]([C@@H](C)O)NC1=O (H-ASCRDDSECITRLCRKRRCSLSVAQE-OH; disulfide 3-14, 9-19)
Activity (Mus musculus [2]): Non-Toxic

CC[C@H](C)[C@@H]1NC(=O)[C@@H]2CSSC[C@@H](C(=O)N[C@@H](CO)C(=O)N[C@@H](CC(C)C)C(=O)N[C@@H](CO)C(=O)N[C@H](C(=O)N[C@@H](C)C(=O)N[C@@H](CCC(N)=O)C(=O)N[C@@H](CCC(=O)O)C(=O)O)C(C)C)NC(=O)[C@H](CCCNC(=N)N)NC(=O)[C@H](CCCNC(=N)N)NC(=O)[C@H](CCCCN)NC(=O)[C@H](CCCNC(=N)N)NC(=O)[C@H](CSSC[C@H](NC(=O)[C@H](CO)NC(=O)[C@H](C)NC(=O)CNC(=O)[C@@H](NC(=O)[C@@H]3CCCN3C(=O)[C@H](CCCNC(=N)N)NC(=O)[C@H](CC(C)C)NC(=O)[C@H](CO)NC(=O)[C@@H](NC(=O)CNC(=O)[C@H](CCCNC(=N)N)NC(=O)[C@H](Cc3c[nH]c4ccccc34)NC(=O)[C@H](Cc3ccccc3)NC(=O)[C@@H]3CCCN3C(=O)[C@@H](NC(=O)[C@@H](N)CCSC)[C@@H](C)O)C(C)C)[C@@H](C)CC)C(=O)N[C@@H](CCCNC(=N)N)C(=O)N[C@@H](CC(=O)O)C(=O)N[C@@H](CC(=O)O)C(=O)N[C@@H](CO)C(=O)N[C@@H](CCC(=O)O)C(=O)N2)NC(=O)[C@H](CC(C)C)NC(=O)[C@H](CCCNC(=N)N)NC(=O)[C@H]([C@@H](C)O)NC1=O (H-MTPFWRGVSLRPIGASCRDDSECITRLCRKRRCSLSVAQE-OH; disulfide 17-28, 23-33)
Kb [3]: 10.2 nM
Ki [4]: 1.26 nM
Kb [5]: 1.48 nM
EC50 [6]: 22.8 nM
Activity (Mus musculus [2]): Non-Toxic

CCCC[C@H](N)C(=O)N[C@H](C(=O)N1CCC[C@H]1C(=O)N[C@@H](Cc1ccccc1)C(=O)N[C@@H](Cc1c[nH]c2ccccc12)C(=O)N[C@@H](CCCNC(=N)N)C(N)=O)[C@@H](C)O (H-[Nle]TPFWR-NH2)
Ki [4]: 55 nM
EC50 [6]: 6630 nM

CCCC[C@H](N)C(=O)N[C@H](C(=O)N1CCC[C@H]1C(=O)N[C@@H](Cc1ccccc1)C(=O)N[C@@H](Cc1c[nH]c2ccccc12)C(=O)N[C@@H](CCCNC(=N)N)C(=O)NCC(=O)N[C@H](C(N)=O)C(C)C)[C@@H](C)O (H-[Nle]TPFWRGV-NH2)
Ki [4]: 6.45 nM
EC50 [6]: 368 nM

CCCC[C@H](N)C(=O)N[C@H](C(=O)N1CCC[C@H]1C(=O)N[C@@H](Cc1ccccc1)C(=O)N[C@@H](Cc1c[nH]c2ccccc12)C(=O)N[C@@H](CCCNC(=N)N)C(=O)NCC(=O)N[C@H](C(=O)N[C@@H](CO)C(=O)N[C@@H](CC(C)C)C(N)=O)C(C)C)[C@@H](C)O (H-[Nle]TPFWRGVSL-NH2)
Ki [4]: 3.4 nM
EC50 [6]: 134 nM

CCCC[C@H](N)C(=O)N[C@H](C(=O)N1CCC[C@H]1C(=O)N[C@@H](Cc1ccccc1)C(=O)N[C@@H](Cc1c[nH]c2ccccc12)C(=O)N[C@@H](CCCNC(=N)N)C(=O)NCC(=O)N[C@H](C(=O)N[C@@H](CO)C(=O)N[C@@H](CC(C)C)C(=O)N[C@@H](CCCNC(=N)N)C(=O)N1CCC[C@H]1C(N)=O)C(C)C)[C@@H](C)O (H-[Nle]TPFWRGVSLRP-NH2)
Activity [7]: Active
Ki [4]: 2.7 nM
EC50 [6]: 46 nM
Activity (Mus musculus [2]): Non-Toxic
Activity (Mus musculus [1]): Active

CCCC[C@H](N)C(=O)N[C@H](C(=O)N1CCC[C@H]1C(=O)N[C@@H](Cc1ccccc1)C(=O)N[C@@H](Cc1c[nH]c2ccccc12)C(=O)N[C@@H](CCCNC(=N)N)C(=O)NCC(=O)N[C@H](C(=O)N[C@@H](CO)C(=O)N[C@@H](CC(C)C)C(=O)N[C@@H](CCCNC(=N)N)C(=O)N1CCC[C@H]1C(=O)N[C@H](C(=O)NCC(N)=O)[C@@H](C)CC)C(C)C)[C@@H](C)O (H-[Nle]TPFWRGVSLRPIG-NH2)
Ki [4]: 3.05 nM
EC50 [6]: 48 nM

CCCC[C@H](N)C(=O)N[C@H](C(=O)N1CCC[C@H]1C(=O)N[C@@H](Cc1ccccc1)C(=O)N[C@@H](Cc1c[nH]c2ccccc12)C(=O)N[C@@H](CCCNC(=N)N)C(=O)NCC(=O)N[C@H](C(=O)N[C@@H](CO)C(=O)N[C@@H](CC(C)C)C(=O)N[C@@H](CCCNC(=N)N)C(=O)N1CCC[C@H]1C(=O)N[C@H](C(=O)NCC(=O)O)[C@@H](C)CC)C(C)C)[C@@H](C)O (H-[Nle]TPFWRGVSLRPIG-OH)
Kb [3]: 89.1 nM
Ki [4]: 3.66 nM
Kb [5]: 34.7 nM
EC50 [6]: 76.4 nM
